Assay results published in ChEMBL document CHEMBL1949499, “Nicotinic acids: liver-targeted SCD inhibitors with preclinical anti-diabetic efficacy” (Bioorg Med Chem Lett, 2011).

What was measured:
[1] = Plasma concentration in C57/BL6 mouse at 30 mg/kg, po after 2 hrs; assay type: ADME, organism-based; design: dose 30 mg/kg, route oral
[2] = Plasma concentration in C57/BL6 mouse at 30 mg/kg, po after 24 hrs; assay type: ADME, organism-based; design: dose 30 mg/kg, route oral
[3] = Drug uptake C57/BL6 in mouse left median liver lobe at 30 mg/kg, po after 6 hrs; assay type: ADME, organism-based; design: dose 30 mg/kg, route oral; settings: read-out: Drug uptake
[4] = Drug uptake in C57/BL6 mouse left median liver lobe at 30 mg/kg, po after 24 hrs; assay type: ADME, organism-based; design: dose 30 mg/kg, route oral; settings: read-out: Drug uptake
[5] = Drug uptake in C57/BL6 mouse kidney at 30 mg/kg, po after 24 hrs; assay type: ADME, organism-based; design: dose 30 mg/kg, route oral; settings: read-out: Drug uptake
[6] = Drug uptake in C57/BL6 mouse harderian glands at 30 mg/kg, po after 24 hrs; assay type: ADME, organism-based, Harderian gland; design: dose 30 mg/kg, route oral; settings: read-out: Drug uptake
[7] = Drug uptake in C57/BL6 mouse skin at 30 mg/kg, po after 2 hrs; assay type: ADME, organism-based, Zone of skin; design: dose 30 mg/kg, route oral; settings: read-out: Drug uptake
[8] = Drug uptake in C57/BL6 mouse skin at 30 mg/kg, po after 6 hrs; assay type: ADME, organism-based, Zone of skin; design: dose 30 mg/kg, route oral; settings: read-out: Drug uptake
[9] = Drug uptake in C57/BL6 mouse skin at 30 mg/kg, po after 24 hrs; assay type: ADME, organism-based, Zone of skin; design: dose 30 mg/kg, route oral; settings: read-out: Drug uptake
[10] = Drug uptake in C57/BL6 mouse left epididymal fat at 30 mg/kg, po after 2 hrs; assay type: ADME, organism-based, Epididymal fat pad; design: dose 30 mg/kg, route oral; settings: male, read-out: Drug uptake
[11] = Drug uptake in C57/BL6 mouse left epididymal fat at 30 mg/kg, po after 6 hrs; assay type: ADME, organism-based, Epididymal fat pad; design: dose 30 mg/kg, route oral; settings: male, read-out: Drug uptake
[12] = Drug uptake in C57/BL6 mouse heart at 30 mg/kg, po after 6 hrs; assay type: ADME, organism-based; design: dose 30 mg/kg, route oral; settings: read-out: Drug uptake
[13] = Drug uptake in C57/BL6 mouse cerebellum at 30 mg/kg, po after 2 hrs; assay type: ADME, organism-based; design: dose 30 mg/kg, route oral; settings: read-out: Drug uptake
[14] = Drug uptake in C57/BL6 mouse cerebellum at 30 mg/kg, po after 24 hrs; assay type: ADME, organism-based; design: dose 30 mg/kg, route oral; settings: read-out: Drug uptake
[15] = Ratio of drug uptake in left median liver lobe to harderian gland in C57/BL6 mouse at 10 mg/kg, po after 6 hrs; assay type: ADME, organism-based; design: dose 10 mg/kg, route oral; settings: in vivo
[16] = target: T1, ATP-binding cassette sub-family C member 2 (Homo sapiens, UniProt Q92887); experiment: Binding affinity to MRP2 expressed in MDCK2 cells coexpressing OATP1B1; assay type: cell-based; settings: dog, mdck-ii
[17] = target: T1, ATP-binding cassette sub-family C member 2; experiment: Binding affinity to MRP2 expressed in MDCK2 cells coexpressing OATP1B3; assay type: cell-based; settings: dog, mdck-ii
Acyl-CoA desaturase 1 = target: T2, Acyl-CoA desaturase 1 (Mus musculus, UniProt P13516); experiment: Inhibition of mouse SCD1
T2 sequence (P13516 whole entry): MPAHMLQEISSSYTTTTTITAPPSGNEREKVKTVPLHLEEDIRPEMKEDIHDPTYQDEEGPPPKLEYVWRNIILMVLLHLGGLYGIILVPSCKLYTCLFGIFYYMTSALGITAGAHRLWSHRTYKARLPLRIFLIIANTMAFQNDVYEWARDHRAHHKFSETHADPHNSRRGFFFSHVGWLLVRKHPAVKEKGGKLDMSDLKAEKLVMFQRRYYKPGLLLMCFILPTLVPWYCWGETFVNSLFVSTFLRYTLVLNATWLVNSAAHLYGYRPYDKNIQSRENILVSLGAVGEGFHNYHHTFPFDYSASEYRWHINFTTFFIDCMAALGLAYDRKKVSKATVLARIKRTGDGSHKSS

Stearoyl-CoA desaturase = target: T3, Stearoyl-CoA desaturase (Homo sapiens, UniProt O00767); experiment: Inhibition of human SCD1
T3 sequence (O00767 whole entry): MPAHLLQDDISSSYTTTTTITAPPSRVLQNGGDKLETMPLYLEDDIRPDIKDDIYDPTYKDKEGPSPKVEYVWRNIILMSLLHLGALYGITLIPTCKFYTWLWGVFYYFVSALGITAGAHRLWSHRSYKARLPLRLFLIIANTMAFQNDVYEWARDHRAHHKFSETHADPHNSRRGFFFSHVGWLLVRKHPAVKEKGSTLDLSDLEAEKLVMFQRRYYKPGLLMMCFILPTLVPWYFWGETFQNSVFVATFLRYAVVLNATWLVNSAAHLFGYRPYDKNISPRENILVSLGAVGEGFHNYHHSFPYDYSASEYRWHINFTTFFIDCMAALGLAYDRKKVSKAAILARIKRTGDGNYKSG

[18] = target: T4, Stearoyl-CoA desaturase 5 (Homo sapiens, UniProt Q86SK9); experiment: Inhibition of human SCD5
T4 sequence (Q86SK9 whole entry): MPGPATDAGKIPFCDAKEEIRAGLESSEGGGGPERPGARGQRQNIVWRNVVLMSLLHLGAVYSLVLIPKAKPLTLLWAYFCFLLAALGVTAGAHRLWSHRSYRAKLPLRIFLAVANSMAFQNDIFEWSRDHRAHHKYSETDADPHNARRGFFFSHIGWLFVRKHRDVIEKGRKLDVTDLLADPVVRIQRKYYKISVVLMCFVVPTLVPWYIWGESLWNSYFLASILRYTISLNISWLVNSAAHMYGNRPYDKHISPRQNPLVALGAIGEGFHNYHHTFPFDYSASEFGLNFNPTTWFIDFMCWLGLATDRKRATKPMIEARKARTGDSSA

[19] = Oral bioavailability in C57/BL6 mouse plasma at 10 mg/kg; assay type: ADME, organism-based
[20] = Half life in C57/BL6 mouse at 10 mg/kg, po and 2 mg/kg, iv; assay type: ADME, organism-based; settings: in vivo
[21] = AUC in C57/BL6 mouse plasma at 10 mg/kg, po and 2 mg/kg, iv; assay type: ADME, organism-based
[22] = Plasma clearance in C57/BL6 mouse at 10 mg/kg, po and 2 mg/kg, iv; assay type: ADME, organism-based
[23] = Volume of distribution at steady state in C57/BL6 mouse at 10 mg/kg, po and 2 mg/kg, iv; assay type: ADME, organism-based; settings: in vivo, read-out: Vdss
[24] = Half life in Sprague-Dawley rat at 10 mg/kg, po and 2 mg/kg, iv; assay type: ADME, organism-based; settings: in vivo
[25] = AUC in Sprague-Dawley rat plasma at 10 mg/kg, po and 2 mg/kg, iv; assay type: ADME, organism-based
[26] = Volume of distribution at steady state in Sprague-Dawley rat at 10 mg/kg, po and 2 mg/kg, iv; assay type: ADME, organism-based; settings: in vivo, read-out: Vdss
Mus musculus [27] = experiment: Inhibition of SCD activity in high sucrose/fat free diet fed C57/BL6 mouse liver assessed as reduction in conversion of [14C]stearic acid to [14C]oleic acid at 30 mg/kg, po; assay type: functional
[28] = Plasma concentration in high sucrose/fat free diet fed C57/BL6 mouse at 10 mg/kg, po after 3 hrs; assay type: ADME, organism-based; design: dose 10 mg/kg, route oral
[29] = Plasma concentration in high sucrose/fat free diet fed C57/BL6 mouse at 30 mg/kg, po after 3 hrs; assay type: ADME, organism-based; design: dose 30 mg/kg, route oral
Mus musculus [30] = experiment: Acute antidiabetic activity in high fat diet fed C57/BL6 mouse eDIO model assessed as increase in glucose clearance at 100 mg/kg, po administered 1 hr prior to glucose challenge by oGTT assay; assay type: functional
[31] = Drug uptake in high fat diet fed C57/BL6 mouse eDIO model whole blood at 30 mg/kg, po after 3 hrs; assay type: ADME, organism-based; design: dose 30 mg/kg, route oral; settings: read-out: Drug uptake
[32] = Drug uptake in high fat diet fed C57/BL6 mouse eDIO model whole blood at 100 mg/kg, po after 3 hrs; assay type: ADME, organism-based; design: dose 100 mg/kg, route oral; settings: read-out: Drug uptake
Nucleic Acid = experiment: Ratio of drug uptake in high fat diet fed C57/BL6 mouse eDIO model whole blood to high sucrose/fat free diet fed C57/BL6 mouse plasma; assay type: ADME; settings: in vivo

T1 sequence (Q92887 whole entry): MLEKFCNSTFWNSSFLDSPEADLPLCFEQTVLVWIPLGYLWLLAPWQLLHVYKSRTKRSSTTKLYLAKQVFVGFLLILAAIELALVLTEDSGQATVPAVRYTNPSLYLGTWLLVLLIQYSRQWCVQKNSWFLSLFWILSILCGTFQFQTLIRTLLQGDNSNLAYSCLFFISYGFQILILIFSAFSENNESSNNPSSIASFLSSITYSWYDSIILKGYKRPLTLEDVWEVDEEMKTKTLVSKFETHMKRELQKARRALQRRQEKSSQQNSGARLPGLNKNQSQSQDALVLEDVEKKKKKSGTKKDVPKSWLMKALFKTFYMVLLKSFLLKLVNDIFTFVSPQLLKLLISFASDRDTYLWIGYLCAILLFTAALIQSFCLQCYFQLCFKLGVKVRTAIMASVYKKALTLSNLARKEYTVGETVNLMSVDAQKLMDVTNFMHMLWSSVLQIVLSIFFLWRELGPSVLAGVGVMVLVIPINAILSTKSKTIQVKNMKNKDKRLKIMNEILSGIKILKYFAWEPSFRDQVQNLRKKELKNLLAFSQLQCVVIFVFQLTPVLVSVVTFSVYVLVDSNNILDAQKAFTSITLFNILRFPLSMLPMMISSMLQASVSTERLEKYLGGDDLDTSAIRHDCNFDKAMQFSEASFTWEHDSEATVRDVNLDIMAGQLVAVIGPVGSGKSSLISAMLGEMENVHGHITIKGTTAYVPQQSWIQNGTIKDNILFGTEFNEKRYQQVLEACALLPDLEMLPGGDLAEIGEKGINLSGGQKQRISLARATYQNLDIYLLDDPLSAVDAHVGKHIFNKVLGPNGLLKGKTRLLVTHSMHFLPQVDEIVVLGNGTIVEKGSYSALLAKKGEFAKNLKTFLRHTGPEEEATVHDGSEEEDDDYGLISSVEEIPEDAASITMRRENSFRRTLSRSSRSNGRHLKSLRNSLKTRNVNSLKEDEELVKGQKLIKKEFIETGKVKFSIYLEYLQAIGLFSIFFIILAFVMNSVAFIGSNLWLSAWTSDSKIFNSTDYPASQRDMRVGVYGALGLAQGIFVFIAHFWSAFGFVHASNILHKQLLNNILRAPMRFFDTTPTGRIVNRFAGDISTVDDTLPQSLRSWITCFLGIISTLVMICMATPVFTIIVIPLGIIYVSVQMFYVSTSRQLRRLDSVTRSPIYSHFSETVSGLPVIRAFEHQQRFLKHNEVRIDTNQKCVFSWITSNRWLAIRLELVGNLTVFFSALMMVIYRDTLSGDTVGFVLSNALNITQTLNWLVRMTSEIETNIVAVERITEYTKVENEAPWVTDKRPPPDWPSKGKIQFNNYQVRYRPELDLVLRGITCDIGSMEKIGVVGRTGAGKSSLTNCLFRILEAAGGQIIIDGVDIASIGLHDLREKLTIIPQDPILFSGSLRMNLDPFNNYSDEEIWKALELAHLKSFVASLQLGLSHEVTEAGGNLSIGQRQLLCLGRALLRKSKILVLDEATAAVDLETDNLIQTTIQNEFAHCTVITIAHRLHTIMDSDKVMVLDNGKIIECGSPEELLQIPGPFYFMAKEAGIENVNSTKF

For `O=C(O)c1cncc(-c2ccc(N3CCC(Oc4cc(F)ccc4Br)CC3)nn2)c1`, the concentration at 2 h [1] was 1210 nM, the concentration at 24 h [2] was 5 nM and the concentration at 6 h [3] was 5200 nM. The concentration at 24 h [4] was 32 nM, the concentration at 24 h [5] was 29 nM and the concentration at 24 h [6] was 5 nM. It also gave a concentration at 2 h [7] of 170 nM, a concentration at 6 h [8] of 55 nM and a concentration at 24 h [9] of 12 nM. It also gave a concentration at 2 h [10] of 106 nM, a concentration at 6 h [11] of 111 nM and a concentration at 6 h [12] of 333 nM. It also gave a concentration at 2 h [13] of 10 nM, a concentration at 24 h [14] of 5 nM and a Ratio [15] of 15. For the same compound, the Activity [16] was “Active”, the Activity [17] was “Active” and the IC50 (Acyl-CoA desaturase 1) was 9 nM. For the same compound, the IC50 (Stearoyl-CoA desaturase) was 7 nM, the IC50 [18] was 4 nM and the bioavailability [19] was 8%. For the same compound, the half-life [20] was 24 min, the AUC [21] was 0.3 µM·h and the clearance [22] was 81 mL/min/kg. The Vd [23] was 1.12 L/kg, the half-life [24] was 84 min and the AUC [25] was 17.8 µM·h. The Vd [26] was 0.41 L/kg, the inhibition in vivo at 30 mg/kg (Mus musculus [27]) was 74% and the concentration at 3 h [28] was 120 nM. For the same compound, the concentration at 3 h [29] was 450 nM, the Activity (Mus musculus [30]) was 90% and the concentration at 3 h [31] was 320 nM. The concentration at 3 h [32] was 2240 nM and the Ratio (Nucleic Acid) was less than 2.
